This is an account of results in patent publication US20100093744A1, “THIOGLUCOSE SPIROKETAL DERIVATIVE AND USE THEREOF AS THERAPEUTIC AGENT FOR DIABETES” (Chugai Seiyaku Kabushiki Kaisha, priority 2007, published 2010).

The experiment has as its target T1, human SGLT2 (Homo sapiens, UniProt P31639).
T1 construct: expressed in transfected cells
T1 sequence (P31639 1-672): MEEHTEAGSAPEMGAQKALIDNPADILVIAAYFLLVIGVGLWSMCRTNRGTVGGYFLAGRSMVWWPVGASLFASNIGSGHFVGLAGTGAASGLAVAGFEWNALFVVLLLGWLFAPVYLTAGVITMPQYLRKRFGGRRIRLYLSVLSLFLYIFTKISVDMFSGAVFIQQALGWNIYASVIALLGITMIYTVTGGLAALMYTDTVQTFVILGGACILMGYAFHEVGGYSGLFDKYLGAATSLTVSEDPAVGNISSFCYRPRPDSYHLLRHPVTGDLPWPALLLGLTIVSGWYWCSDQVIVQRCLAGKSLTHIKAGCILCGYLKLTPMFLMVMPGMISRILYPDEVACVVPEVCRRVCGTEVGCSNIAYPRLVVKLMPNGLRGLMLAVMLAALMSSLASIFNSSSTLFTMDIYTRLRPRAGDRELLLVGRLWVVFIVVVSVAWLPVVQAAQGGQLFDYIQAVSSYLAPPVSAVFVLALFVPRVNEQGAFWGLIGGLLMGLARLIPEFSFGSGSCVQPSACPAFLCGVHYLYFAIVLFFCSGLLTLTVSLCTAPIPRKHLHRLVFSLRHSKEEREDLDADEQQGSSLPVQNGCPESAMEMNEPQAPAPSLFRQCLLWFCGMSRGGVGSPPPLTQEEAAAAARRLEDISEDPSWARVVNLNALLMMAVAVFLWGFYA
Put plainly: Inhibition of methyl-α-D-glucopyranoside uptake in CHO cells stably expressing human SGLT2. The experiment is classed as cell-based. As to conditions: methyl-α-D-(U-14C)glucopyranoside uptake, 37° C., 45 minutes, read-out: ICH value for the inhibition of SGLT2. The protocol:
Assay for Evaluating Inhibition of Activity of Human Na^+-Glucose Cotransporter (SGLT1 and SGLT2)
Human SGLT2 cDNA was amplified by PCR with a cDNA library derived from human kidney (Clontech) as a template, synthetic DNA primers, and KOD+ DNA Polymerase. The amplified cDNA was inserted into pcRII-Topo vector by using a Topo TA Cloning Dual Promoter kit. E. coli competent cells (TPO10) were transformed with the plasmid vector, and then cultured in LB medium containing ampicillin (50 mg/L) to grow ampicillin-resistant clones. The plasmid vector containing human SGLT2 cDNA was purified from the clone in a standard manner. Human SGLT2 cDNA added restriction enzyme recognition sites (Xho I at 5′-end, Hind III at 3′-end) was amplified by PCR with the plasmid vector as a template, synthetic DNA primers containing an additional restriction enzyme recognition site, and KOD+ DNA Polymerase. This amplified cDNA was digested with Xho I and Hind III, and the resulting fragment was ligated into expression vector pcDNA3.1(−) digested with Xho I and Hind III by using a Rapid DNA Ligation kit. E. coli competent cells (DH5α) were transformed with the ligated expression vector and grown in ampicillin-containing LB medium. Human SGLT2 expression vector was purified from the ampicillin-resistant clone in a standard manner. […]

Consider `CCc1ccc(Cc2ccc3c(c2)[C@]2(OC3)S[C@H](CO)[C@@H](O)[C@H](O)[C@H]2O)cc1` [Example 1, (1S,3′R,4′S,5′S,6′R)-6-[(4-ethylphenyl)methyl]-3′,4′,5′,6′-tetrahydro-6′-(hydroxymethyl)-spiro[isobenzofuran-1(3H),2′-[2H]thiopyran]-3′,4′,5′-triol], for which the IC50 was 12 nM.
